Each structure is given as a SMILES string.

The nature of the data set: Human HepG2 cell viability assay in 384 well format. In kind it is toxicity, cell-based. More on the design: dose 125 nL, time 70.5 hour; cytotoxicity at 70.5 h: concentration not given beside the values. As to conditions: HepG2 cells, read-out: Inhibition.
Consider `O=C(CCn1ccnc1)N1CC[C@@H](c2ccc3ccccc3c2)[C@H](O)C1`, for which the cytotoxicity at 70.5 h was determined as 4.4%.

Consider `CC1CCN(CC(O)CNc2ccccn2)CC1` (centres undefined), for which the cytotoxicity at 70.5 h was -6.21%. The same measure for `COCCN(C(=O)c1c[nH]c2ncccc12)C1CCCC1`: 0.976%; for `COc1ccccc1CC(=O)N1CC[C@@]2(CCCO2)[C@@H](OC)C1`: 25.6%; for `O=C(NCc1ccc(-c2ccn[nH]2)cc1)N1CCC(N2CCCC2)C1` (centres undefined): -5.88%. The same measure for `Cc1ccsc1CN(C)C(=O)C1CCCN(C(N)=O)C1` (centres undefined): -8.56%; for `Fc1cccc(-c2cccc(N3CCC(NC4CCCOC4)CC3)c2)c1` (centres undefined): 33.8%; for `CCC(C)N1CCc2c(C(=O)N(C)Cc3ccccn3)nn(C)c2C1` (centres undefined): -7.34%. As to `CCC(C)(NCC(=O)NC(=O)NC)c1nc(C)cs1` (centres undefined), the cytotoxicity at 70.5 h was -4.2%. To `CC(C)Oc1ccccc1CNC(=O)c1[nH]ncc1Br` belongs 7%. To `Cc1cccc(OCCC(=O)NCC(C)(C)C(N)=O)c1` belongs 5.99%; to `Cc1ccc(CN2Cc3nnn(C)c3C(COCc3ccccc3)C2)o1` (centres undefined), -8.1%. As for `Cn1cc(C(=O)N2CC[C@H](N3CCOCC3)[C@H](CCCO)C2)cn1`, the cytotoxicity at 70.5 h is -12.1%. For `CCc1ccccc1N1CC(c2nnc(N)s2)CC1=O` (centres undefined), the cytotoxicity at 70.5 h is -13.1%. The same measure for `Cc1nc(CC(=O)N2CCn3c(nnc3C(C)C)C2)cs1`: -2.25%.

For the compound `COCCN(C)C[C@@H]1CN(C(=O)c2cccc(C(F)(F)F)c2)C[C@@H]1CO`, the cytotoxicity at 70.5 h was -9.39%. In the case of `Cc1ccc(CS(=O)(=O)N2CC[C@H]3[C@H]2CC(=O)N3C)cc1`, the cytotoxicity at 70.5 h is -10.2%. The same measure for `O=C(c1cccs1)N1CCN(Cc2cc(=O)c3ccccc3[nH]2)CC1`: -4.26%; for `CCCC(=O)N(CCN1CCOCC1)c1nc2c(OC)ccc(C)c2s1`: -7.03%; for `NC(=O)C1=NC2=NS(=O)(=O)c3ccccc3N2N1Cc1ccc(Br)cc1`: -7.39%.

As for `CC(=O)Nc1ccc(CNC(=O)CNCc2snnc2C)cc1`, the cytotoxicity at 70.5 h was determined as 15.4%. The same measure for `COCCNC(=O)CN1CCC(N2CCN(C)C2=O)CC1`: -13.2%; for `Cc1cc(-c2ccc(=O)n(C3CCN(C(=O)C4CC4)CC3)n2)c(C)o1`: -2.33%; for `NC(=O)c1cc2c(nc1CCOCc1ccccc1)CCC2`: -8.58%. For the compound `Cc1cc(C(=O)NCCn2nc3ccccn3c2=O)[nH]n1`, the cytotoxicity at 70.5 h is -13.9%. `CC(C)CNC(=O)c1ccc(NC(=O)NCC2CC2)cc1Cl`: the cytotoxicity at 70.5 h is -12.7%.

On to `O=S(=O)(NCCc1nc(-c2cccnc2)n[nH]1)NCc1ccccc1`, for which the cytotoxicity at 70.5 h is -7.05%. To `CCc1c(C)[nH]c(C(C)(N)CC)nc1=O` (centres undefined) belongs -10.4%. To `CSCCC(=O)N1CCCC1c1nnc2n1CCCCC2` (centres undefined) belongs -3.4%; to `Cc1ccc(C(O)CN2CCN(Cc3nccn3C)CC2)cc1C` (centres undefined), 2%; to `CN1CCN(S(=O)(=O)c2cccc(F)c2)c2cnccc21`, -2.79%. To `CCOC[C@@H]1CC[C@H]2[C@H](CCN2S(=O)(=O)Cc2ccccc2)O1` belongs 10.7%; to `CC(NC(=O)NC1CCN(Cc2ccncc2)CC1)c1ccccc1F` (centres undefined), -22.4%. In the case of `Cc1cc(NCCOCCS(C)(=O)=O)nc2ccccc12`, the cytotoxicity at 70.5 h came to 1.59%. Regarding `COCc1nc(CN2CC(Cc3ccccc3)CC2=O)no1` (centres undefined), the cytotoxicity at 70.5 h is -8.93%. For `O[C@@]1(CNCC2(Cn3cccn3)CC2)CCCN2CCCC[C@@H]21`, the cytotoxicity at 70.5 h is -11.3%.

As for `Cc1noc(C)c1CN(C)C(=O)NC(C)c1cccs1` (centres undefined), the cytotoxicity at 70.5 h turned out to be 7.59%. Regarding `O=C1CC(c2ccccc2)c2snc(C(=O)O)c2N1` (centres undefined), the cytotoxicity at 70.5 h stood at 24.7%. With `CN(C)C(=O)CN1C(=O)[C@H]2CC[C@@H]1CN(Cc1ccccc1C#N)C2`, the cytotoxicity at 70.5 h is -4.2%.

For the compound `Cc1ccc(-c2cc(CNC(=O)N3CCOC(C)C3)on2)cc1` (centres undefined), the cytotoxicity at 70.5 h is -6.72%.

On to `CC1CN(C)CCN1CC(=O)NCCOc1ccc(Cl)cc1` (centres undefined), for which the cytotoxicity at 70.5 h amounted to 11.2%. For the compound `CC(C)(N)c1cn(C2CCN(C(=O)CCC3CCCCC3)CC2)nn1`, the cytotoxicity at 70.5 h is -5.04%.

As for `O=C(O)Cn1nc(-c2ccccc2F)ccc1=O`, the cytotoxicity at 70.5 h was found to be 2.69%. To `Cc1ccc([C@@H]2CN(C(=O)c3cc(C)no3)C[C@H]2NC(=O)C2CC2)cc1` belongs -6.47%. For the compound `CN(C)C(=O)Cn1cc(C(=O)NCCc2cccc(Cl)c2Cl)nn1`, the cytotoxicity at 70.5 h came to 2.52%.

`CCCNC(=O)c1sc(Nc2ccc(Cl)cn2)nc1C`: the cytotoxicity at 70.5 h was -5%. Take `CC1(c2ccccc2)CCC(=O)N(CCCN2CCOCC2)C1` (centres undefined): the cytotoxicity at 70.5 h is -8.26%. To `O=S(=O)(c1cncc(F)c1)N1CCC2(CCOC2)C1` (centres undefined) belongs -14.3%; to `O=C(CCc1ccsc1)NC1CCN(c2cccc(F)c2)CC1`, 4.39%; to `O=c1cc(CSc2nnc[nH]2)nc2sc3c(n12)CCCC3`, -10.9%.

With `C=C(C)COc1cccc(C(=O)N2CCC3(CCOCC3)CC2)c1`, the cytotoxicity at 70.5 h was determined as 3.55%.

For the compound `COCC(NC(=O)c1cnc(-c2ccncc2)nc1)c1ccnn1C` (centres undefined), the cytotoxicity at 70.5 h is -5.01%. To `COc1cc(CN2CC(=O)N(c3ccc(C)cc3)CC2C)cc(OC)c1` (centres undefined) belongs -12%; to `O=C1[C@H]2CN(c3ncccn3)C[C@H]2CN1CC1CC1`, -124%. The same measure for `COc1cccc(CNCc2c(C)nc3sc(C)cn23)c1OC`: -1.69%; for `COc1nc2cc(C)ccc2cc1CN(C)Cc1cc(C)[nH]n1`: -6.96%; for `CC(NC(=O)Cn1cccnc1=O)c1ccc(C(F)(F)F)cc1` (centres undefined): 12%.

Consider `COc1cccn(CC(=O)N(C)CCSC)c1=O`, for which the cytotoxicity at 70.5 h is -12.7%. To `CCN(CCn1cccn1)Cc1nc(-c2cccc(C)c2)oc1C` belongs -5.06%; to `CC(C(=O)NCCCN1CCOCC1)n1cncn1` (centres undefined), 6.37%. To `COc1ccc(C(=O)N2CCN(C(=O)Cn3nccc3C)CC2)cc1` belongs 1.46%. With `CN(C)Cc1nc2c(o1)CN(C(=O)c1ccncc1F)C2`, the cytotoxicity at 70.5 h is -8.38%. The same measure for `CCc1noc(CNc2cc(F)ccc2OCC2CCCO2)n1` (centres undefined): -6.07%; for `CC(=O)Nc1nc(C(=O)NCc2ccc(N3CCOC(C)C3)nc2)cs1` (centres undefined): -7.71%; for `COc1ccc(-c2cc(-c3nc(CN4CCN(C)CC4)no3)[nH]n2)cc1`: -5.68%.

On to `CCC(CC)c1cc(CNC(=O)N2CCC(n3cncn3)CC2)on1`, for which the cytotoxicity at 70.5 h was -1.7%. The same measure for `Cc1cc(C)n(CCN2CCN(C(=O)c3ccccc3Br)CC2)n1`: -2.29%; for `Cc1ccccc1CN(CCN(C)C)Cc1ccc(S(C)(=O)=O)cc1`: 4.23%. `CN1CCC2(CCN(CC3CCOCC3)CC2)C1=O`: the cytotoxicity at 70.5 h was -10.4%. The same measure for `CCOCCN1CCN(CCc2nc3ccccc3c(=O)[nH]2)CC1`: 1.75%; for `CCCS(=O)(=O)N1CCc2onc(CNc3ncccn3)c2C1`: 6.05%; for `Cc1ccc(S(=O)(=O)Nc2cccnc2O)cc1C`: -0.331%. To `CCCc1cc(C(=O)N[C@@H](CO)[C@@H](O)c2ccccc2)n(C)n1` belongs 0.909%; to `O=C1N(Cc2ccc(Cl)cc2)CCC12CCCNC2` (centres undefined), -12.9%; to `COCCn1ccnc1CN1CCc2[nH]cnc2C1c1cnn(C)c1C` (centres undefined), -13.2%. In the case of `O=C(c1ccncc1)N1CCc2ncnc(C3CCOC3)c2CC1` (centres undefined), the cytotoxicity at 70.5 h is -10.1%.

As to `Cc1cc(CN[C@@H](Cc2ccccc2)C(N)=O)c(C)s1`, the cytotoxicity at 70.5 h was -14.1%. In the case of `CC(C)(C(=O)NCC1CCN(Cc2ccccn2)C1)c1ccccc1` (centres undefined), the cytotoxicity at 70.5 h came out at 18.1%. To `Cc1ccc(C(C)N(C)Cc2nc3c(cnn3C)c(=O)[nH]2)s1` (centres undefined) belongs -8.32%; to `OCc1ccc(CN(CCCn2ccnc2)Cc2ccncc2)o1`, -4.15%. For `COc1ccccc1C1(CNCc2cccc(O)c2)CCOCC1`, the cytotoxicity at 70.5 h is -2.11%.

As for `COC(=O)c1ccc(N2CCN(C(=O)c3ccncc3)C(C)C2)cc1` (centres undefined), the cytotoxicity at 70.5 h is 15.3%. To `CCc1ocnc1C(=O)N1CCOC(c2nc(C(C)C)n[nH]2)C1` (centres undefined) belongs -10.4%. Regarding `Cc1nn(CC(=O)N2CCN(c3ncccn3)CC2)c(C)c1Cl`, the cytotoxicity at 70.5 h came out at 21.2%. The same measure for `Cc1nn(C)cc1S(=O)(=O)N(C)[C@@H]1CCC[C@@H](n2ccnc2)[C@@H]1O`: 19.1%; for `Cc1ccsc1C(=O)N1CC(C(=O)NC(C)C)C2(CCOCC2)C1` (centres undefined): 1.65%. As to `Cc1nnc(CN2CCN(C)C3(CCNC(=O)CC3)C2)s1` (centres undefined), the cytotoxicity at 70.5 h is 2.04%. For `Fc1ccccc1-c1cccc(C2CCCN(C3CCOCC3)C2)n1` (centres undefined), the cytotoxicity at 70.5 h was -7.34%.

As to `CN1CC2(CCN(c3nc(N)nc4c3CCNC4)CC2)OC1=O`, the cytotoxicity at 70.5 h was -8.95%. Consider `CCC(CO)N(Cc1ccccn1)C(=O)c1ccc(CSC)o1` (centres undefined), for which the cytotoxicity at 70.5 h is -0.517%.

For `CC(C)C(=O)NCCNc1nccc(-c2cc(C(=O)O)ccn2)n1`, the cytotoxicity at 70.5 h was -0.446%.

Consider `CN1CCC2(CC1)C(=O)N(C)c1ccc(F)cc12`, for which the cytotoxicity at 70.5 h was found to be 27.9%. To `Cc1nc(C)n(CC2CN(Cc3ccccc3OC(C)C)CCO2)n1` (centres undefined) belongs -9.52%; to `COc1cccc(COCC(=O)N2CCN(S(C)(=O)=O)CC2)c1`, -4.61%. Consider `CCCNC(=O)Nc1cc2c(cc1SC)OCCO2`, for which the cytotoxicity at 70.5 h was determined as 0.576%. Take `CN1CC(=O)N(C2CCCNC2)Cc2c(NC3CCC3)ncnc21` (centres undefined): the cytotoxicity at 70.5 h is -3.06%. To `Cc1noc(C)c1CN1CCOC(CNc2cccnn2)C1` (centres undefined) belongs 23.1%; to `CC(C)CNC(=O)c1cc(C2CC2)nc2onc(C3CCNCC3)c12`, -3.04%.

Consider `CCn1c(C2CCN(C(=O)c3ccc4sc(C)nc4c3)CC2)n[nH]c1=O`, for which the cytotoxicity at 70.5 h is -17.3%.

These data come from ChEMBL document CHEMBL3507680, “University of Dundee, Gates Library screen for HepG2 cell viability”.
